What was measured:
Assay type in all cases: in vitro ADME
CYP3A4/5 [1] = assay: CYP3A4/5 midazolam 1′-hydroxylation in human liver microsomes (HPLC); conditions: substrate midazolam, n = 2
Experimental: (§1) Enzyme activities were assayed in human and rat liver cytosolic and microsomal fractions. The enzyme assays (each performed in 4–8 replicates) were repeated three times (HPLC measurement of CYP activities was repeated only twice, Table 3). Inhibition studies were carried out by incubation of specific substrates in the presence of sesquiterpenes (in the range 0–100 µM).
(§2) Enzyme activities of individual CYP forms were measured according to established protocols. The following microsomal CYP activities were tested: CYP2A6, coumarin 7-hydroxylation; CYP2B6, 7-ethoxy-4-(trifluoromethyl)coumarin 7-deethylation, CYP2C9, diclofenac 4′-hydroxylation, CYP2C19 assay, S-mephenytoin 4′-hydroxylation, CYP2D6 on bufuralol 1′-hydroxylation, CYP2E1, chlorzoxazone 6-hydroxylation and CYP3A4, testosterone 6β-hydroxylation, and midazolam 1′-hydroxylation. Activities were measured using the Prominence HPLC system (Shimadzu, Kyoto, Japan), equipped with a LiChroCART 250-4 LiChrospher 100 RP-18 column or Chromolith®HighResolution RP-18 end-capped column (Merck, Darmstadt, Germany) and UV or fluorescence detection, according to the cited literature. […] CYP1A2, 7-ethoxyresorufin O-deethylation, and CYP3A4/2B6 (human), CYP2B1 (rat), benzyloxyresorufin O-debenzylation were measured using the microplate reader Tecan Infinite M200 (Tecan Group; Mannedorf, Switzerland). […]

CYP3A4/5 [2] = assay: CYP3A4/5 testosterone 6β-hydroxylation in human liver microsomes (HPLC); conditions: substrate testosterone, n = 2
Experimental: as §1
(§3) Enzyme activities of individual CYP forms were measured according to established protocols. The following microsomal CYP activities were tested: CYP2A6, coumarin 7-hydroxylation; CYP2B6, 7-ethoxy-4-(trifluoromethyl)coumarin 7-deethylation, CYP2C9, diclofenac 4′-hydroxylation, CYP2C19 assay, S-mephenytoin 4′-hydroxylation, CYP2D6 on bufuralol 1′-hydroxylation, CYP2E1, chlorzoxazone 6-hydroxylation and CYP3A4, testosterone 6β-hydroxylation, and midazolam 1′-hydroxylation. Activities were measured using the Prominence HPLC system (Shimadzu, Kyoto, Japan), equipped with a LiChroCART 250-4 LiChrospher 100 RP-18 column or Chromolith®HighResolution RP-18 end-capped column (Merck, Darmstadt, Germany) and UV or fluorescence detection, according to the cited literature. Further incubation details are described either in the corresponding references, as well as in the papers from this laboratory e.g., [42, 43, 44]. CYP1A2, 7-ethoxyresorufin O-deethylation, and CYP3A4/2B6 (human), CYP2B1 (rat), benzyloxyresorufin O-debenzylation were measured using the microplate reader Tecan Infinite M200 (Tecan Group; Mannedorf, Switzerland).
(§4) The concentration of sesquiterpenes required for 50% inhibition of enzyme activity, the IC50 value, was determined. Their final concentrations in the reaction mixture were proposed to cover the entire inhibitory range of these compounds (1–100 µM). The IC50 values for each sesquiterpene were determined by plotting sigmoidal dose response curves of specific enzyme activity vs. logarithm of sesquiterpene concentration using GraphPad Prism version 6.07 for Windows (GraphPad Software Inc., La Jolla, CA, USA).

UGT = UGT activity in rat liver subcellular fraction; conditions: 100 µM sesquiterpene, control 16.2 ± 0.98
Experimental: as §1
(§5) The assays of all other enzymes were based on spectrophotometric detection of product formed or detection of decreasing substrate/cofactor levels using microplate reader Tecan Infinite M200 in cytosolic or microsomal fractions. Enzyme activities were determined using slight modifications of previously-published methods: carbonyl reducing enzymes (AKR1A, AKR1C, CBR1 [45], NQO1 [46]), UDP-glucuronosyltransferase (UGT [47]), sulfotransferase (SULT [48]), and cytosolic glutathione-S-transferase (GST [49]).
(§6) Sesquiterpenes CNER, TNER and FAR, non-volatile liquids, were pipetted, and proper concentration was calculated according to density. All compounds were dissolved in DMSO. The final solvent concentration in the inhibition assays was 1%, which had no effect on the enzyme activity (data not shown). Non-enzymatic interference of sesquiterpenes with some compounds in the reaction mixtures (e.g., fluorescence enhancing or quenching) was considered and excluded. All experiments were performed in three replicates, if not stated otherwise.
(§7) CNER, TNER and FAR at a fixed concentration of 100 µM were screened for inhibition of cytosolic AKR1A1, AKR1C, CBR1, NQO1, SULT, and GST, and microsomal CYPs and UGT. The degree of inhibition caused by sesquiterpenes was compared with non-inhibited control reactions, which contained solvent without sesquiterpenes.

NQO1 = molecular target: T1, NQO1 (Rattus norvegicus, UniProt P05982); assay: NQO1 activity in rat liver subcellular fraction; conditions: 100 µM sesquiterpene, control 25.3 ± 5.6
T1 construct: Frozen liver (both rat and human) was thawed; from tissue; host or cells: rat liver cytosolic fraction
T1 sequence (P05982 2-274 limits assumed): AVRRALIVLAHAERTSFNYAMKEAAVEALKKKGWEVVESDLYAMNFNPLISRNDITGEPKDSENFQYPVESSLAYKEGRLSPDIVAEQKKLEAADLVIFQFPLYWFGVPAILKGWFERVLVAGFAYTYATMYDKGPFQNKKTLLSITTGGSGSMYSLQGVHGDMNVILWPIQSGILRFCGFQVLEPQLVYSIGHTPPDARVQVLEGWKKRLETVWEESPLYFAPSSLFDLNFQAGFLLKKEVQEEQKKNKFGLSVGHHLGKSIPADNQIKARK
Experimental: as §1, §5, §6, §7

CYP2A6 = molecular target: T2, CYP2A6 (Homo sapiens, UniProt P11509); assay: CYP2A6 coumarin 7-hydroxylation in human liver microsomes (HPLC); conditions: substrate coumarin, n = 2
T2 construct: other CYP-mediated activities in human liver microsomes; from tissue; host or cells: human liver microsomal fraction
T2 sequence (P11509 whole entry): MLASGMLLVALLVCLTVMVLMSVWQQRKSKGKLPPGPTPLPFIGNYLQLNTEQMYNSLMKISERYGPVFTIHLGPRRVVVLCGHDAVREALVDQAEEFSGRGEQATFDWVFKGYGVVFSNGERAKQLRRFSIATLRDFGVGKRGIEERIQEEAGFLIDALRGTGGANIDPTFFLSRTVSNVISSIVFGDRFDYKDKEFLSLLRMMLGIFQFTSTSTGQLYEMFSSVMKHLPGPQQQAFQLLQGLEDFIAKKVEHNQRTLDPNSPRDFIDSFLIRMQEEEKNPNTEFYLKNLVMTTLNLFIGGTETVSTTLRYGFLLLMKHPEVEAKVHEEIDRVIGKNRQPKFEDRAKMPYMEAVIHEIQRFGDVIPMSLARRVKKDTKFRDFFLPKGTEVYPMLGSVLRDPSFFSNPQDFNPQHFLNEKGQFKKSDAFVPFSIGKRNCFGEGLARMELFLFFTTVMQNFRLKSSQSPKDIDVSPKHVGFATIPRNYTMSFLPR
Experimental: as §1, §2

[3] = system: CYP2B/3A (CYP2B1, BROD activity); assay: CYP2B/3A (BROD activity, benzyloxyresorufin O-debenzylation) in rat liver microsomes; conditions: probe benzyloxyresorufin (O-debenzylation), 0.5-5.0 µM; rat liver microsomes, BROD activity
Experimental: as §1, §3, §6, §7, §4
(§8) The kinetic inactivation study of the CYP1A2 (EROD activity) and CYP2B/3A (BROD activity), both in rat and human, with TNER, was performed to find out the mechanism of enzyme inhibition by this sesquiterpene. Mechanism of EROD and BROD inhibition was tested at the final ethoxyresorufin or benzyloxyresorufin concentrations 0.5–5.0 µM. The concentration of TNER was 5.0 µM.
(§9) Experimental data were fitted to the Michaelis-Menten equation, basic kinetic parameters were determined using the program GraphPad Prism version 6.07 for Windows. The type of inhibition was estimated using a Lineweaver-Burk (double-reciprocal) plot.

[4] = system: CYP2B/3A (CYP3A4/2B6, BROD activity); assay: CYP2B/3A (BROD activity, benzyloxyresorufin O-debenzylation) in human liver microsomes; conditions: probe benzyloxyresorufin (O-debenzylation), 0.5-5.0 µM; human liver microsomes, BROD activity
Experimental: as §1, §3, §6, §7, §4, §8, §9

CYP2C19 = molecular target: T3, CYP2C19 (Homo sapiens, UniProt P33261); assay: CYP2C19 S-mephenytoin 4′-hydroxylation in human liver microsomes (HPLC); conditions: substrate S-mephenytoin, n = 2
T3 construct: other CYP-mediated activities in human liver microsomes; from tissue; host or cells: human liver microsomal fraction
T3 sequence (P33261 whole entry): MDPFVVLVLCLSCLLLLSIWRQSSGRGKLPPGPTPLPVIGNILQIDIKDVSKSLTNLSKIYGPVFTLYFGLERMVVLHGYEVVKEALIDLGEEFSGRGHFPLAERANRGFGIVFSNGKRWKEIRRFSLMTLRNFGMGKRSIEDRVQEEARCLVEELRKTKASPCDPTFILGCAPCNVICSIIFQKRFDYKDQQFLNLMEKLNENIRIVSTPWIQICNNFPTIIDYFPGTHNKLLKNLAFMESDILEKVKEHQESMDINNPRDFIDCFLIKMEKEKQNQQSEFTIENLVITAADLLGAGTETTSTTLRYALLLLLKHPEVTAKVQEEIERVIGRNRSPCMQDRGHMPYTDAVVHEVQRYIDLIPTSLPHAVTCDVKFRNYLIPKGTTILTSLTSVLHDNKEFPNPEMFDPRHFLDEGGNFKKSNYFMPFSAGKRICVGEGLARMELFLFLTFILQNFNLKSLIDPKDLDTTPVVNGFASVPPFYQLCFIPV
Experimental: as §1, §2

[5] = human, liver microsomes, probe testosterone

SMILES | IC50 (CYP3A4/5 [1]; human, liver microsomes, probe midazolam) [µM] | IC50 (CYP3A4/5 [1]) [µM] | IC50 (CYP3A4/5 [2]; [5]) [µM] | Specific activity, UGT (UGT) [nmol/mg/min] | Specific activity, NQO1 (NQO1) [nmol/mg/min] | IC50 (CYP2A6) [µM] | Ki [3] [µM] | IC50 (CYP3A4/5 [2]) [µM] | Ki [4] [µM] | IC50 (CYP2C19) [µM]
C=CC(C)(O)CC/C=C(/C)CCC=C(C)C (stereo not drawn) [CNER, cis-nerolidol] | 66 | 66.1 ± 30.5 | 186 ± 125 | 15.9 ± 1.11 | 21.7 ± 3.6 |  |  |  |  | 
CC(C)=CCC/C(C)=C/CC/C(C)=C/CO [FAR, farnesol] |  |  |  | 14.3 ± 3.15 | 22.2 ± 3.3 | 85.9 ± 22.9 |  |  |  | 
C=CC(C)(O)CC/C=C(\C)CCC=C(C)C (stereo not drawn) [TNER, trans-nerolidol] |  |  | 51 | 16.4 ± 2.46 | 21.8 ± 2.4 |  | 0.55 ± 0.11 | 50.5 ± 13.5 | 2.41 ± 0.33 | 76.4 ± 52.1
